US20100168102A9, “Amide Derivatives as Kinase Inhibitors” (Devgen NV, priority 2005, published 2010)
Where two headings read alike, the source gives them in different places.

Key:
PKC epsilon = molecular target: T1, PKC epsilon (Homo sapiens, UniProt Q02156); assay: Biochemical assay for PKC epsilon (fluorescence polarization, Protein Kinase C Assay Kit, Red); details: read-out: IC50 μM PKCε
T1 construct: purchased Invitrogen P2282
T1 sequence (Q02156 1-737): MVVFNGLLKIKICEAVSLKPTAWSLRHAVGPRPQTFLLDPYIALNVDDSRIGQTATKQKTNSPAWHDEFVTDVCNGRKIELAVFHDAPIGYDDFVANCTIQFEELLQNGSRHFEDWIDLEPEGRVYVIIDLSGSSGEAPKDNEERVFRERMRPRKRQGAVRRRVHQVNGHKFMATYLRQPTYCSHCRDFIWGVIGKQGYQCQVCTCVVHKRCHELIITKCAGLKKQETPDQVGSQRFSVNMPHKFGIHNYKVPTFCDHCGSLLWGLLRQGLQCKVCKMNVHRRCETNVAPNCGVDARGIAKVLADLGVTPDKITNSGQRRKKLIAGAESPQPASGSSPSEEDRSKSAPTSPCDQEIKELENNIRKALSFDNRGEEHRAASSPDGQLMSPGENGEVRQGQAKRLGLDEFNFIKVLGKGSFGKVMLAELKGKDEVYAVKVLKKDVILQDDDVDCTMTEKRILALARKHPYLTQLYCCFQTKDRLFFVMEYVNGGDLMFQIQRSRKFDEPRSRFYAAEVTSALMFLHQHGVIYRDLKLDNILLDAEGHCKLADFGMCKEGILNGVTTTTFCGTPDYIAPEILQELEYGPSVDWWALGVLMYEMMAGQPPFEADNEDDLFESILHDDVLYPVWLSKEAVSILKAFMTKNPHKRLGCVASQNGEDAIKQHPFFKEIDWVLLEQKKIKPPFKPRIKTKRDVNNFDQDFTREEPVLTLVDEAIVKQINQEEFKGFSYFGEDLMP
Experimental: The compounds were tested for inhibition of PKC epsilon.
The inhibition assays were performed with a fluorescence polarization (FP) assay using the commercially available Protein Kinase C Assay Kit, Red, from Invitrogen (Product ID. No. P2941), essentially in accordance with the protocol supplied by the manufacturer. […] The isozyme PKC epsilon was also obtained from Invitrogen (Product ID No. P2282).
Staurosporine was used as a positive control (2 μM).
To perform the assay, 2 μl of a solution of the compound to be tested in DMSO (at each concentration) was added to 6 μl of a solution of the enzyme in 10 mM HEPES, 5 mM dithiotreitol, 0.1% Triton X-100, pH 7.4. The final concentration of the enzymes was 10 ng/ml.
After incubating for 30 minutes at room temperature, 4 μl of a mixture of ATP and the protein substrate in 60 mM HEPES (pH7.4), 15 mM MgCl2, 0.3 mM CaCl2, 0.06% NP40 was added.
After incubating for 80 minutes at room temperature, 3 μl of a mix solution of 500 mM EDTA (stop solution) and the Rhodamine-based PKC Red Tracer (from the Protein Kinase C Assay Kit) in BGG/phosphate buffer (pH7.4) with 0.02% NaN3 and 0.1% Triton X-100 was added and 5 μl of a the Anti-Phosphoserine antibody (also from the Protein Kinase C Assay Kit) in BGG/phosphate buffer (pH7.4) with 0.02% NaN3.
The results were fitted to a curve using the XL-Fit algorithm and […] were calculated for each fitted curve, again using the XL-Fit algorithm.

human ROCKα/ROCKII mix = molecular target: T2, human ROCKα/ROCKII mix (Homo sapiens, UniProt O75116); assay: Biochemical assay for ROCK (fluorescence polarization, ROCK IMAP Kit)
T2 construct: purchased Upstate Biotechnology 14-451
Experimental: The compounds were tested for inhibition of human ROCKα/ROCKII mix.
The inhibition assays were performed with a fluorescence polarization (FP) assay using the commercially available ROCK IMAP Kit from Molecular Devices (Product ID. No. R8093), essentially in accordance with the protocol supplied by the manufacturer. […] The enzyme mix ROCKα/ROCKII was obtained from Upstate Biotechnology (Product ID No 14-451).
In summary, the compound was screened in the wells of a 384 well plate for enzymatic inhibition with concentrations varying from 100 μM to 0.3 nM using a stepwise 3 (or 2)-fold dilution.
To perform the assay, 1 μl of a solution of the compound to be tested in DMSO (at each concentration) was added to 2 μl of a solution of the enzyme in 10 mM Tris-HCl , 10 mM MgCl2, 0.1% BSA, 0.05% NaN3, pH 7.2. The final concentration of the enzyme was 2.6 nM.
After incubating for 30 minutes at room temperature, 2 μl of a mixture of ATP and the protein substrate in 10 mM Tris-HCl, 10 mM MgCl2, 0.1% BSA, 0.05% NaN3, pH 7.2 was added. The final concentration of the ATP was 10 μM and final concentration of protein substrate was 0.2 μM.
After incubating for 60 minutes at room temperature, 12 μl of the IMAP Binding Solution (mix of the IMAP Binding Buffer A (1×) and the IMAP Binding Reagent (from the ROCK IMAP kit)) was added.
The mixture thus obtained (total volume: 17 μl) was incubated for 60 minutes at room temperature, upon which the fluorescence polarization was measured using an automated plate reader (Perkin Elmer, Model Envision 2100-0010 HTS) with FP filters: excitation filter FITC FP 480 and emission filters FITC FP P-pol 535 and FITC FP S-pol 535 (Perkin-Elmer). The results were fitted to a curve using the XL-Fit algorithm and IC50 values were calculated for each fitted curve, again using the XL-Fit algorithm.

[1] = compounds of Formula XIV, Table 3
[2] = Table 2, compounds of Formula XIII

T2 sequence (O75116 11-552 limits assumed): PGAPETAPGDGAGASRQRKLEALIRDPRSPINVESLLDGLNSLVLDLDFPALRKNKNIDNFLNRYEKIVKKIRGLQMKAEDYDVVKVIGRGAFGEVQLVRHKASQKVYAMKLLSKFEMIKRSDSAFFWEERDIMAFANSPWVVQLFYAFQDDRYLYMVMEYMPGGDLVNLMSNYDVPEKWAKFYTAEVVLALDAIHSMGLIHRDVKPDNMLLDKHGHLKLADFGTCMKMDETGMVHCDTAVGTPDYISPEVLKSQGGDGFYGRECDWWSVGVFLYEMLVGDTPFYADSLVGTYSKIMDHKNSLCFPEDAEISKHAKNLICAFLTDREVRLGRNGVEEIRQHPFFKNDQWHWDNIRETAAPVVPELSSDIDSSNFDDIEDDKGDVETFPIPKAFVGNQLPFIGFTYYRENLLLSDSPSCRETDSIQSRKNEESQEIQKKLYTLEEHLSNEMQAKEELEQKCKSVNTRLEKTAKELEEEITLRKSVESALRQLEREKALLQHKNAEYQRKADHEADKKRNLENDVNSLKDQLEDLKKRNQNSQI

IC50 (human ROCKα/ROCKII mix) | Compound | further results
 | 4-(1-Amino-2- phenethylcarbamoyl-ethyl)- N-pyridin-4-yl-benzamide [Compound 281] | IC50 (PKC epsilon; [1]): 0.5 to 5 µM; IC50 (human ROCKα/ROCKII mix; [1]): 0.05 to 0.5 µM
 | 4-(1-Amino-2-nonanoylamino-ethyl)- N-pyridin-4-yl-benzamide [Compound 38] | IC50 (PKC epsilon; [2]): 0.5 to 5 µM; IC50 (human ROCKα/ROCKII mix; [2]): 0.05 to 0.5 µM
0.5 to 5 µM | 4-(1-Amino-2-{[1-(4-chloro- phenyl)- cyclobutanecarbonyl]- methyl- amino}-ethyl)- N-pyridin-4-yl-benzamide [Compound 464] | 
0.5 to 5 µM | 4-(1-Amino-2-{[1-(4-chloro- phenyl)- cyclopentanecarbonyl]- methyl- amino}-ethyl)- N-pyridin-4-yl-benzamide [Compound 465] | 
0.5 to 5 µM | 4-(1-Amino-2-{[1-(4-chloro- phenyl)- cyclopropanecarbonyl]- methyl- amino}-ethyl)- N-pyridin-4-yl-benzamide [Compound 463] | 
0.5 to 5 µM | 4-(1-Amino-2-{[1-(4-fluoro- phenyl)- cyclopropanecarbonyl]- methyl- amino}-ethyl)- N-pyridin-4-yl-benzamide [Compound 473] | 
5 to 50 µM | 4-(1-Amino-2-{[2-(2,3,4- trimethoxy-phenyl)-acetyl]- methyl-amino}-ethyl)-N- pyridin-4-yl-benzamide [Compound 431] | 
0.5 to 5 µM | 4-(1-Amino-2-{[2-(4-chloro- phenyl)-2-methyl-propionyl]- methyl- amino}-ethyl)- N-pyridin-4-yl-benzamide [Compound 462] | 
0.5 to 5 µM | 4-(1-Amino-2-{[2-(4-fluoro- phenyl)-2-methyl-propionyl]- methyl- amino}-ethyl)- N-pyridin-4-yl-benzamide [Compound 472] | 
0.5 to 5 µM | 4-(Amino-{1-[2-(4-fluoro-phenyl)-2-methyl-propionyl]-pyrrolidin-2-yl}-methyl)-N-pyridin-4-yl-benzamide [Compound 586] | 
 | 4-[1-Amino-2-(methyl- phenethyl-carbamoyl)-ethyl]- N-pyridin-4-yl-benzamide [Compound 282] | IC50 (human ROCKα/ROCKII mix; [1]): 0.05 to 0.5 µM
0.5 to 5 µM | 4-{Amino-[1-(2-methyl-2-thiophen-2-yl-propionyl)-pyrrolidin-2-yl]-methyl}-N-pyridin-4-yl-benzamide [Compound 548] | 
0.05 to 0.5 µM | Cc1ccccc1CNC(=O)NCC(N)c1ccc(C(=O)Nc2ccncc2)cc1 (centres unmarked) [Compound 9, 4-{1-amino-2-[3-(2-methyl-benzyl)-ureido]-ethyl}-N-pyridin-4-yl-benzamide] | 
0.05 to 0.5 µM | COc1ccc(CNC(=O)NCC(N)c2ccc(C(=O)Nc3ccncc3)cc2)cc1 (centres unmarked) [Compound 10, 4-{1-amino-2-[3-(4-methoxy-benzyl)-ureido]-ethyl}-N-pyridin-4-yl-benzamide] | 
0.05 to 0.5 µM | NC(CNC(=O)Nc1ccc(F)cc1)c1ccc(C(=O)Nc2ccncc2)cc1 (centres unmarked) [Compound 19, 4-{1-amino-2-[3-(4-fluoro-phenyl)-ureido]-ethyl}-N-pyridin-4-yl-benzamide] | 
0.05 to 0.5 µM | COc1ccc(Cl)cc1NC(=O)NCC(N)c1ccc(C(=O)Nc2ccncc2)cc1 (centres unmarked) [Compound 27, 4-{1-amino-2-[3-(5-chloro-2-methoxy-phenyl)-ureido]-ethyl}-N-pyridin-4-yl-benzamide] | 
 | NC(CNC(=O)c1ccc2ccccc2n1)c1ccc(C(=O)Nc2ccncc2)cc1 (centres unmarked) [Compound 112, Quinoline-2-carboxylic acid {2-amino-2-[4-(pyridin-4-ylcarbamoyl)-phenyl]-ethyl}-amide] | IC50 (human ROCKα/ROCKII mix; [2]): 0.05 to 0.5 µM
 | CN(Cc1ccccc1)C(=O)CC(N)c1ccc(C(=O)Nc2ccncc2)cc1 (centres unmarked) [Compound 214, 4-[1-Amino-2-(benzyl-methyl-carbamoyl)-ethyl]-N-pyridin-4-yl-benzamide] | IC50 (human ROCKα/ROCKII mix; [1]): 0.05 to 0.5 µM
 | Cc1ccc(NC(=O)CC(N)c2ccc(C(=O)Nc3ccncc3)cc2)cc1 (centres unmarked) [Compound 317, 4-(1-Amino-2-p-tolylcarbamoyl-ethyl)-N-pyridin-4-yl-benzamide] | IC50 (human ROCKα/ROCKII mix; [1]): 0.05 to 0.5 µM
0.5 to 5 µM | CN(CC(N)c1ccc(C(=O)Nc2ccncc2)cc1)C(=O)Cc1ccc(F)c(F)c1 (centres unmarked) [Compound 484, 4-(1-Amino-2-{[2-(3,4-difluoro-phenyl)-acetyl]-methyl-amino}-ethyl)-N-pyridin-4-yl-benzamide] | 
0.5 to 5 µM | CN(CC(N)c1ccc(C(=O)Nc2ccncc2)cc1)C(=O)C1CC(=O)c2ccccc21 (centres unmarked) [Compound 508, 3-Oxo-indan-1-carboxylic acid {2-amino-2-[4-(pyridin-4-ylcarbamoyl)-phenyl]-ethyl}-methyl-amide] | 
0.5 to 5 µM | CC(C)(C(=O)N1CCCC1C(N)c1ccc(C(=O)Nc2ccncc2)cc1)c1ccsc1 (centres unmarked) [Compound 550, 4-{Amino-[1-(2-methyl-2-thiophen-3-yl-propionyl)-pyrrolidin-2-yl]-methyl}-N-pyridin-4-yl-benzamide] | 

Compound | IC50 (human ROCKα/ROCKII mix) | further results
4-(1-Amino-2-{[2-(2-fluoro- phenyl)-acetyl]-methyl- amino}-ethyl)- N-pyridin-4-yl-benzamide [Compound 466] | 0.5 to 5 µM | IC50 (PKC epsilon): 5 to 50 µM
4-(1-Amino-2-{[2-(3-bromo- phenyl)-acetyl]-methyl- amino}-ethyl)- N-pyridin-4-yl-benzamide [Compound 456] | 0.5 to 5 µM | IC50 (PKC epsilon): 5 to 50 µM
4-(1-Amino-2-{[2-(3-chloro- phenyl)-acetyl]-methyl- amino}-ethyl)- N-pyridin-4-yl-benzamide [Compound 459] | 0.5 to 5 µM | IC50 (PKC epsilon): 5 to 50 µM
4-(1-Amino-2-{[2-(3-fluoro-4- methoxy-phenyl)-acetyl]- methyl- amino}-ethyl)- N-pyridin-4-yl-benzamide [Compound 470] | 0.5 to 5 µM | IC50 (PKC epsilon): 5 to 50 µM
4-(1-Amino-2-{[2-(3-fluoro- phenyl)-acetyl]-methyl- amino}-ethyl)- N-pyridin-4-yl-benzamide [Compound 468] | 0.5 to 5 µM | IC50 (PKC epsilon): 5 to 50 µM
4-(1-Amino-2-{[2-(4- hydroxy-3-nitro-phenyl)- acetyl]-methyl- amino]-ethyl)- N-pyridin-4-yl-benzamide [Compound 439] | 0.05 to 0.5 µM | IC50 (PKC epsilon): 5 to 50 µM
4-(1-Amino-2-{[2-(4- trifluoromethyl-phenyl)- acetyl]-methyl- amino}-ethyl)- N-pyridin-4-yl-benzamide [Compound 458] | 0.5 to 5 µM | IC50 (PKC epsilon): 5 to 50 µM
